Publication PMC9603010 (ACS Bio & Med Chem Au, 2022)

Key:
3CL^pro M165A = 3CL^pro M165A (Severe acute respiratory syndrome coronavirus 2, UniProt P0DTD1, M3428A); type: cell-based, SARS-CoV-2
3CL^pro Q299A = 3CL^pro Q299A (Severe acute respiratory syndrome coronavirus 2, UniProt P0DTD1, Q3562A); type: cell-based, SARS-CoV-2

C=C1C(=O)O[C@H]2[C@H]1CC/C(C)=C/CC[C@@]1(C)O[C@@H]21 [parthenolide]
inhibition in M165A compared to WT (3CL^pro M165A): reduced
inhibition in Q299A compared to WT (3CL^pro Q299A): reduced
